According to publication PMC4684500, “Diversity, Antimicrobial Action and Structure-Activity Relationship of Buffalo Cathelicidins” (PLoS ONE, 2015):
Where no end group is shown, it is not given here.

Key:
[1] = tested on: Stahylococcus aureus ATCC-29213; assay type: cell-based, Staphylococcus aureus; conditions: ATCC-29213, 24 h
Procedure: (§1) The buCATHL4 peptides were synthesized by G L Biochem (Shanghai, China). Purity and molecular mass of the peptides were provided by the vendors using HPLC and mass spectrometry, respectively. The purity of all peptides were >98%. Minimum inhibitory concentrations (MIC) of buCATHL4s against the pathogenic microorganisms were tested by broth micro-dilution technique. Briefly, bacteria were grown in Mueller Hinton broth (Sigma-Aldrich, MO, USA) at 37°C. The OD of early-log phase cultures were adjusted to 0.08–0.1 and further diluted (1:200) to keep inoculums concentration nearly 10^6 colony forming units (CFU)/ml. Diluted peptides (10 μl) were mixed with equi-volume solution A (0.02% acetic acid containing 0.4% BSA) and were serially diluted in the solution B (0.01% acetic acid containing 0.2% BSA). Bacterial inoculums (90 μl) were mixed with serially diluted peptides and incubated at 37°C for 24 h without shaking. […] All peptides were tested in triplicate. For time kill kinetics experiments, peptides (1×, 2× and 4× MIC) were added to bacterial suspension of Staphylococcus aureus, Salmonella enterica and Pseudomonas aeruginosa, as described in the MIC determination method. Aliquots of representative wells were diluted and plated on Muller Hinton agar plates at 0, 1, 4, 12 and 24 h intervals. Water with 0.01% acetic acid and ampicillin (100 mg/ml) were taken as […] controls, respectively. The results were represented as log CFU/ml.

[2] = tested on: Stahylococcus aureus NCDC-0111; assay type: cell-based, Staphylococcus aureus; conditions: 24 h
Procedure: as §1

[3] = tested on: Acinetobacter johnsonii NCDC-0072; assay type: cell-based; conditions: 24 h
Procedure: as §1

[4] = tested on: Bacillus cereus NCDC-0240; assay type: cell-based; conditions: NCDC-0240, 24 h
Procedure: as §1

[5] = tested on: Escherichia coli MTCC-0723; assay type: cell-based; conditions: MTCC-0723, 24 h
Procedure: as §1

[6] = tested on: Listeria monocytogenes ATCC-19111; assay type: cell-based; conditions: ATCC-19111, 24 h
Procedure: as §1

[7] = tested on: Pseudomonas aeruginosa ATCC-27853; assay type: cell-based; conditions: ATCC-27853, 24 h
Procedure: as §1

[8] = tested on: Pseudomonas aeruginosa NCDC-0105; assay type: cell-based; conditions: NCDC-0105, 24 h
Procedure: as §1

[9] = tested on: Salmonella typhimurium ATCC-14028; assay type: cell-based; conditions: ATCC-14028, 24 h
Procedure: as §1

S. aureus [10] = assay: Time kill kinetics; assay type: cell-based, Staphylococcus aureus
Procedure: as §1

[11] = tested on: S. aureus, S. typhimurium and P. aeruginosa; assay: Time kill kinetics, three pathogens; assay type: cell-based; conditions: peptide at 4× MIC
Procedure: as §1

S. aureus biofilm = assay: Biofilm assay (crystal violet); assay type: cell-based, Staphylococcus aureus; conditions: peptide at 1× and 2× MIC, 24 h 37°C, crystal violet A570
Procedure: (§2) The efficacy of peptides against biofilms of S. aureus and P. aeruginosa was determined using previously described method. Overnight grown bacterial cultures were diluted (1:100) and 200 μl suspensions were mixed with each peptide (1× and 2× MIC) in a 96 well plate and incubated for 24 h at 37°C. Biofilms were fixed with paraformadehyde solution, cultures were decanted and 0.1% crystal violet solution was added to stain the film. The plate was rinsed thrice with water and air-dried. The stain was dissolved by 100 μl of acetic acid (30%) and absorbance was measured at 570 nm. The experiment was performed in triplicate, 30% acetic acid was taken as a blank.

P. aeruginosa biofilm = assay: Biofilm assay (crystal violet); assay type: cell-based, Pseudomonas aeruginosa; conditions: peptide at 1× and 2× MIC, 24 h 37°C, crystal violet A570
Procedure: as §2

S. aureus [12] = assay: LIVE/DEAD BacLight membrane permeability assay; assay type: cell-based, Staphylococcus aureus; conditions: peptide 200μM, log phase culture, SYTO9/PI
Procedure: (§3) The damage to bacterial membrane following addition of peptide was assessed by BacLight kit (Life Technologies, CA, USA). Aliquots of S. aureus, S. enterica and P. aeruginosa cultures from exponential (shaking incubation for 2, 3, and 4 h, respectively) and stationary phases (overnight incubation) were harvested by centrifugation (5000 g for 10 min) and diluted in PBS. Peptides (200μM) were added to bacterial suspension and 50 μl aliquots were removed immediately or after 1 h incubation. Equi-volume mixtures of SYTO9/PI (3 μl/ml bacterial suspension) were added to these aliquots and fluorescent micrographs of stained bacteria were taken at 1000×magnification in a microscope (Olympus BX51 fitted with DP71 camera) with a fluorescence illuminator system.

S. typhimurium [13] = assay: LIVE/DEAD BacLight membrane permeability assay; assay type: cell-based, Salmonella typhimurium; conditions: peptide 200μM, SYTO9/PI
Procedure: as §3

S. aureus [14] = assay: Scanning and transmission electron microscopy; assay type: cell-based, Staphylococcus aureus; conditions: lower concentrations (≤2× MIC)
Procedure: (§4) Early log phase cultures of S. aureus and S. enterica were subjected to different concentration of peptides and incubated at 37°C. The bacterial pellets after centrifugation (5000 g for 10 min) were washed with 0.1M cacodylate buffer (pH 7.2) and were fixed in 2.5% gluteraldehyde at 4°C for 2 h. For scanning electron microscopy, bacteria were dehydrated using gradient series of ethanol wash (30, 50, 70, 90 and absolute). The samples were air-dried overnight, gold coated (Eiko IB-3 ion coater), and viewed in a Zeiss EVO 18 Special Edition SEM. For transmission electron microscopy, fixed samples were adhered to hexagonal PELCO® Grids (Ted Pella, Inc. USA), washed once with Mili-Q water and stained with uranyl acetate (2%) buffer. Samples were viewed in a JEM 1011 (Jeol, Japan) microscope.

S. typhimurium [15] = assay: Scanning and transmission electron microscopy; assay type: cell-based, Salmonella typhimurium
Procedure: as §4

PBMCs = assay: In vitro cytokine response, qRT-PCR; assay type: cell-based, buffalo; conditions: peptide 500 nM, 1 h, qRT-PCR vs PBS control, p<0.05
Procedure: For measurement of in vitro cytokine response, PBMCs were isolated from blood and maintained in serum-free RPMI-1640 (Sigma Aldrich, MO, USA) medium. Cells were exposed to peptides (500 nM), muramyl-di-peptide (Invivogen, San Diego, CA) [MDP (10 μg/ml) as positive control] and PBS (negative control). Cells were incubated for 1 h and relative mRNA abundance of cytokines was quantified by qRT-PCR using RPS-18 gene as housekeeping control. Total RNA, extracted by TRIzol (Ambion, CA, USA) method was used for cDNA preparation (Superscript III cDNA synthesis kit; Invitrogen, CA, USA).qRT-PCR reactions were performed in a Light Cycler® 480 II machine (Roche Diagnostics, USA). Each reaction consisted of 2 μl cDNA template, 5 μl of 2× SYBR® Green PCR Master Mix (Thermo Scientific, PA, USA), 0.25 μl each of forward and reverse primers (10 pmol) and nuclease free water for a final volume of 10 μl. Each sample was run in duplicate.

RIRFPWPWRWPWWRRVRG [buCATHL4C]
MIC [1]: 0.2 µM | MIC [2]: 0.4 µM | MIC [3]: 6 µM | MIC [4]: 0.8 µM | MIC [5]: 12.5 µM | MIC [6]: 1.5 µM | MIC [7]: 0.2 µM | MIC [8]: 6 µM | MIC [9]: 3 µM | Growth inhibition of S. aureus in time kill kinetics (S. aureus [10]; peptide at 2× MIC, plating at 0, 1, 4, 12, 24 h): complete growth inhibition | Time to complete elimination of S. aureus (S. aureus [10]; peptide at 4× MIC, time kill kinetics): 4 h | Killing rate compared with indolicidin and ampicillin [11]: comparatively better killing rate | Reduction in biofilm growth of S. aureus (S. aureus biofilm): substantial | Reduction in biofilm growth of P. aeruginosa (P. aeruginosa biofilm): substantial | Clumping (agglutination) of S. aureus after peptide addition (S. aureus [12]): immediate clumping | Clumping (agglutination) of S. typhimurium after peptide addition (S. typhimurium [13]; log phase culture): immediate clumping | Membrane permeability of latent (stationary phase) S. typhimurium (S. typhimurium [13]; stationary phase culture, proportion of cells affected comparatively less): affected membrane permeability | Morphological change of S. aureus cells (SEM/TEM) (S. aureus [14]): swelling and blebing | Formation of pore like structures over the membrane (SEM/TEM) (S. typhimurium [15]; Fig 5H and 5L, S. typhimurium, with extensive wrinkling of membrane): Formation of pore like structures | Formation of negative curvature on membrane (SEM/TEM) (S. typhimurium [15]; more evident with S. typhimurium): Formation of negative curvature | TNF-α mRNA response (PBMCs): significantly higher
